Test results: patent publication US4634766A, “1,4-diaza-phenothiazines” (Merck Frosst Canada, Inc., priority 1984, dated 1987)
Values after ≈ are worked out from the molar mass of the structure shown.

Legend:
[1] = test system: LTB4 formation in rat polymorphonuclear leukocytes; experiment: Rat Polymorphonuclear Leukocyte (P.M.N.) Assay: inhibition of LTB4 formation; assay type: cell-based; conditions: A-23187 stimulated rat PMN, LTB4 bioassay, read-out: PMN I50
Experimental: Rats under ether anesthesia were injected (i.p.) with 8 ml of a suspension of sodium caseinate (6 grams in ca. 50 ml water). After 15-24 hours the rats were sacrificed (CO2) and the cells from the peritoneal cavity were recovered by lavage with 20 ml of buffer (Eagles MEM containing 30 mM HEPES adjusted to pH 7.4 with NaOH). The cells were pelleted (350×g,5 min.), resuspended in buffer with vigorous shaking, filtered through lens paper, recentrifuged and finally suspended in buffer at a concentration of […]. A 500 μl aliquot of PMN suspension and test compound were preincubated for 2 minutes at 37° C., followed by the addition of 10 μM A-23187. The suspension was stirred for an additional 4 minutes then bioassayed for LTB4 content by adding an aliquot to a second 500 μl portion of the PMN at 37° C. The LTB4 produced in the first incubation caused aggregation of the second PMN, which was measured as a change in light transmission. The size of the assay aliquot was chosen to give a submaximal transmission change (usually -70%) for the untreated control. The percentage inhibition of LTB4 formation was calculated from the ratio of transmission change in the sample to the transmission change in the compound-free control.

guinea pig trachea = experiment: Antigen Challenge in vitro Assay: contraction of sensitized tracheal chains by egg albumin; assay type: cell-based; conditions: Cavia porcellus; for inhibition at 3 µg/mL: 3 μg/ml
Experimental: Male guinea pigs weighing 300-350 g were sensitized by injecting (I.P.) 0.5 ml of a suspension containing 0.4 mg of egg albumin (Ovalbumin, Grade V, Sigma Chemical Co.) and 4.0 g aluminum hydroxide in 19.6 ml of saline. Two weeks were permitted for sensitization to occur.
Three sensitized guinea pigs were stunned and exsanguinated. The tracheas were removed, freed of adhering tissue and divided longitudinally by cutting through the cartilaginous tissue directly opposite the muscle insertion. Each opened trachea was then transected between every second cartilage. Four of the cut sections were tied together, end to end, in a series with No. 7 silk thread ensuring that the tracheal muscles were all in the same vertical plane. Thus, each chain consisted of tissue from three different animals.
The chain so formed was then suspended under 1 g of tension (by silk ties at each end) in a 20 ml organ bath containing 10 ml of modified^1 Krebs-Henseleit buffer solution gassed with 95% O2 and 5% CO2 at 37° C. Mepyramine (0.55 μg/ml) and indomethacin (2.67 μg/ml) were added to the buffer to avoid the contribution of histamine receptors and cyclooxygenase products to the contraction. To record responses one end of the tracheal chain was attached to a Gould-Statham UC-2 force displacement transducer which was connected to a Beckman Type R-dynograph.The preparations were allowed to equilibrate for one hour during which time the tissues were automatically washed (10 ml volume displacement) every 6 minutes.
After the equilibration period the tissues were primed with methacholine (3 μg/ml; 1.5×10^-5 M), washed and allowed to recover to baseline. The tissues were treated again with a second dose of methacholine, washed, allowed to return to baseline and washed for an additional hour.
Two chains were used as a control. These were incubated in a concentration of egg albumin sufficient to induce an average contraction of 50-80% of the methacholine response.
Each compound to be tested was added to two other baths (at a final concentration in each bath of 10 μg/ml) 15 minutes prior to challenging the fresh chains with egg albumin.
The response of the challenged tissue was expressed as a percentage of the methacholine maximum. The percentage inhibition for each compound was then calculated. Compounds which at 10 μg/ml (final conc.) inhibited the egg albumin response by 50% or more were retested at a lower concentration.

asthmatic rats = experiment: Asthmatic Rat Assay: duration of dyspnoea after egg albumin aerosol challenge; assay type: in vivo; conditions: p.o.
Description: Rats were obtained from an inbred line of asthmatic rats. Both female and male rats from 200 to 300 g were used.
Egg albumin (EA), grade V, crystallized and lyophilized, was obtained from Sigma Chemical Co., St. Louis. Bordetella pertussis vaccine, containing 30×10^9 killed bacteria per ml was obtained from the Institut Armand-Frappier, Laval des Rapides, Quebec. Aluminum hydroxide was obtained from the Regis Chemical Company, Chicago.
The challenge and subsequent respiratory recordings were carried out in a clear plastic box with internal dimensions 10×6×4 inches. The top of the box was removable; in use, it was held firmly in place by four clamps and an airtight seal was maintained by a soft rubber gasket. […] A Fleisch No. 0000 pneumotachograph was inserted into one end of the box and coupled to a Grass volumetric pressure transducer (PT5-A) which was then connected to a Beckman Type R Dynograph through appropriate couplers. While aerosolizing the antigen, the outlets were open and the pneumotachograph was isolated from the chamber. The outlets were closed and the pneumotachograph and the chamber were connected during the recording or the respiratory patterns. For challenge, 2 ml of a 3% solution of antigen in saline was placed into each nebulizer and the aerosol was generated with air from a small Potter diaphragm pump operating at 10 psi and a flow of 8 liters/minute.
Rats were sensitized by injecting (s.c.) 1 ml of a suspension containing 1 mg EA and 200 mg aluminum hydroxide in saline. Simultaneously, they received an intraperitoneal (i.p.) injection of 0.5 ml of B. pertussis vaccine. They were used between days 14 and 18 postsensitization. In order to eliminate the serotonin component of the response, rats were pretreated intravenously 5 minutes prior to aerosol challenge with […] methylserzide. Rats were then exposed to an aerosol of 3% EA in saline for exactly 1 minute, then their respiratory profiles were recorded for a further 25-30 minutes. The duration of continuous dyspnoea was measured from the respiratory recordings.
Compounds were generally administered either intraperitoneally 1 hour prior to challenge or orally 11/2 hours prior to challenge. They were either dissolved in dimethylsulfoxide or suspended in 0.1% methocel and 0.5% Tween 80. The volume injected was 2 ml/kg (intraperitoneally) or 10 ml/kg (orally (p.o.)). Prior to oral treatment rats were starved overnight. Their activity was determined in terms of their ability to decrease the duration of symptoms of dyspnoea in comparison with a group of vehicle-treated controls. Usually, a compound was evaluated at a series of doses and an ED50 was determined. This was defined as the dose (mg/kg) which would inhibit the duration of symptoms by 50%.

[2] = test system: PAF-induced hyperalgesia in the rat paw; experiment: PAF-Induced Hyperalgesia Assay; assay type: in vivo, rat (Sprague-Dawley); conditions: 10 mg/kg, i.p.

Row | IC50 [1] [µg/mL] | SMILES | inhibition at 3 µg/mL (guinea pig trachea) [%] | further results
1 | 1 to 5 (≈ 4.65 to 23.2 µM) | CN1c2ccccc2Sc2nccnc21 | – | –
2 | 5 (≈ 17.9 µM) | COc1cc2c(cc1Cl)N(C)c1nccnc1S2 | – | –
3 | 0.2 (≈ 0.753 µM) | CN1c2cc(Cl)c(O)cc2Sc2nccnc21 [drawing 18] | – | –
4 | 5 (≈ 24.8 µM) | c1ccc2c(c1)Nc1nccnc1S2 [drawing 17] | – | inhibition at 10 µg/mL (guinea pig trachea; 10 μg/ml): 85%
5 | 1 to 5 (≈ 4.32 to 21.6 µM) | CN1c2ccc(O)cc2Sc2nccnc21 [drawing 21] | 71 | –

The remaining lines, values behind:

Row | SMILES | IC50 [1] [µg/mL] | inhibition at 3 µg/mL (guinea pig trachea) [%] | further results
6 | c1ccc2c(c1)Nc1nccnc1O2 | 0.5 to 1 (≈ 2.7 to 5.4 µM) | 35 | –
7 | CN1c2cc(Cl)c(O)cc2Sc2nccnc21 [drawing 28] | – | – | Asthmatic Rat % Inhibition (asthmatic rats; 5 mg/kg): 47%
8 | COc1ccc2c(c1)[S+]([O-])c1nccnc1N2C (centres unmarked) | – | – | Asthmatic Rat % Inhibition (asthmatic rats; 3 mg/kg): 25%
9 | c1ccc2c(c1)Nc1nccnc1S2 [drawing 27] | – | – | Asthmatic Rat % Inhibition (asthmatic rats; 5 mg/kg): 30%; PAF % Inhibition [2]: 70%
10 | CN1c2ccc(O)cc2Sc2nccnc21 [drawing 30] | – | – | Asthmatic Rat % Inhibition (asthmatic rats; 3 mg/kg): 39%
11 | COc1ccc2c(c1)Sc1nccnc1N2C | – | – | Asthmatic Rat % Inhibition (asthmatic rats; 3 mg/kg): 43%
12 | COc1cc2c(cc1Cl)Nc1nccnc1S2 | 1 (≈ 3.76 µM) | – | –
13 | CCOC(=O)CN1c2ccccc2Sc2nccnc21 | – | 22 | –
14 | CC(=O)N1c2ccccc2Sc2nccnc21 | – | 14 | –
15 | COc1ccc2c(c1)Sc1nccnc1N2 | 0.05 to 0.5 (≈ 0.216 to 2.16 µM) | 42 | –
